Activity calls are given as the source filed them.
Legend:
[1] = target: Lysine-specific demethylase 4A (Homo sapiens, UniProt O75164); assay: JMJD2A histone demethylase inhibitors, dose response, selectivity assay for GASC-1 inhibitor project, biochemical, DELFIA europium, cherry-picked samples (AID 488840)
[2] = cytotoxicity in HEK-293T NF-kB-Luc cells, dose response, cytotoxicity control for B/T-cell NF-kB inhibitor project, cell-based, uHTS hits (AID 489019); format: functional;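 also: IC50 reflects cytotoxicity as loss of cell viability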
[3] = target: Neuropeptide Y receptor type 2 (Homo sapiens, UniProt P49146); assay: NPY-Y2 antagonist potency, selectivity check, dose response, counter-screen for NPY-Y1 antagonist project, cell-based (AID 1278); format: functional
INS1 = assay: beta cell apoptosis inhibitors, cytokine rescue, dose response, luminescence, retest (AID 449756); format: functional, cell-based; conditions: Rattus norvegicus;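 also: cell death triggered by IL-1 beta plus TNF-alpha plus IFN-gamma mixture; protective hits raise ATP signal compared with cytokine alone wells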
Jurkat = assay: antigen receptor-induced NF-kB inhibitors, dose response, Jurkat, luciferase reporter, luminescence, B- and T-cell (AID 489004); format: functional, cell-based; conditions: Homo sapiens;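 also: NF-kB luciferase reporter Jurkat cells stimulated with PMA plus ionomycin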
[4] = target: Neuropeptide Y receptor type 1 (Homo sapiens, UniProt P25929); assay: NPY-Y1 receptor antagonist potency, dose response, cell-based (AID 1277); format: functional
Neuropeptide Y receptor type 1, sequence (P25929 whole entry): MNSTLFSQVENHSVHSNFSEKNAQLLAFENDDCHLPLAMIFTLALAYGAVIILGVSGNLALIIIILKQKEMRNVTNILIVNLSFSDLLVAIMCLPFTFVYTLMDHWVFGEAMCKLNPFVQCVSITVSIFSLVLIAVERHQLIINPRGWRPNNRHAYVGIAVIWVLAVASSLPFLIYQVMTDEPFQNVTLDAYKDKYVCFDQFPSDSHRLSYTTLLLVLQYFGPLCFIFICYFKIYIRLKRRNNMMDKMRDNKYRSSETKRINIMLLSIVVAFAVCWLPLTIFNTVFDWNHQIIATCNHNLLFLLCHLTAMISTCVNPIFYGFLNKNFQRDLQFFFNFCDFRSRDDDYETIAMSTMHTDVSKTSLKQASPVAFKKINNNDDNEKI

[5] = target: Long-chain-fatty-acid--AMP ligase FadD28 (Mycobacterium tuberculosis, UniProt P9WQ59); assay: Fluorescence polarization aasay to screen for inhibitors that compete for the binding of FadD28 to a bisubstrate Measured in Biochemical System Using Plate Reader - 2147-01_Inhibitor_Dose_CherryPick_Activity.; format: functional, Mycobacterium tuberculosis H37Rv
[6] = target: Dual specificity tyrosine-phosphorylation-regulated kinase 1A (Rattus norvegicus, UniProt Q63470); format: biochemical, Homo sapiens
[7] = target: T1, RNA-binding protein pos-1 (Caenorhabditis elegans, UniProt G5EF15); assay: inhibitors of POS-1/mex-3 RNA binding, dose response, biochemical, fluorescence polarization (AID 1964);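 also: purified POS-1 fused to maltose binding protein made in E. coli; potency of compounds blocking POS-1 binding to fluorescent RNA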
T1 sequence (G5EF15 whole entry): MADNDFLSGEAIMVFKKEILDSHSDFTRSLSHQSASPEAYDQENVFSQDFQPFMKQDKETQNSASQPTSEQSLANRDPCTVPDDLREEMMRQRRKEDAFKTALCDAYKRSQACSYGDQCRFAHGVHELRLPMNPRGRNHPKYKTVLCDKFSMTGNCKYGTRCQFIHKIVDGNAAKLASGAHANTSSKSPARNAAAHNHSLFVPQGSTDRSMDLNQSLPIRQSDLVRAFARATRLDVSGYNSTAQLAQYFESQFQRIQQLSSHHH

[8] = target: T2, Alkaline phosphatase, tissue-nonspecific isozyme (Homo sapiens, UniProt P05186); assay: TNAP enzyme inhibition by screening hits, dose response, selectivity assay for mouse IAP inhibitor project, biochemical, human TNAP, uHTS hits (AID 488906); format: functional
T2 sequence (P05186 whole entry): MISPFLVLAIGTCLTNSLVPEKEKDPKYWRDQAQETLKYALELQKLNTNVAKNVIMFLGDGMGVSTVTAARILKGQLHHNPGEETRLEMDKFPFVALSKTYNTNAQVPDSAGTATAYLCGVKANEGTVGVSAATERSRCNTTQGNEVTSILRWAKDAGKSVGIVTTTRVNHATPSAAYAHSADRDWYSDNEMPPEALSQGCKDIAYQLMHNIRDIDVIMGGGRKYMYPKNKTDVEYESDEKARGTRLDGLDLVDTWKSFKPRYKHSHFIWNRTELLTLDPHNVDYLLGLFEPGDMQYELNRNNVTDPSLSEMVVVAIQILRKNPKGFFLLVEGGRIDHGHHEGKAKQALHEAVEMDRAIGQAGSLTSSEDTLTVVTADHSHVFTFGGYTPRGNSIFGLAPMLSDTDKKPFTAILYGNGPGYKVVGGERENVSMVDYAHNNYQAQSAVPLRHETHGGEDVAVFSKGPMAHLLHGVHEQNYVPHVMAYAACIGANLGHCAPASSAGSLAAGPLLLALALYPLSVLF

[9] = target: T3, Intestinal-type alkaline phosphatase (Mus musculus, UniProt P24822); assay: PubChem AID 488785; format: functional
T3 sequence (P24822 whole entry): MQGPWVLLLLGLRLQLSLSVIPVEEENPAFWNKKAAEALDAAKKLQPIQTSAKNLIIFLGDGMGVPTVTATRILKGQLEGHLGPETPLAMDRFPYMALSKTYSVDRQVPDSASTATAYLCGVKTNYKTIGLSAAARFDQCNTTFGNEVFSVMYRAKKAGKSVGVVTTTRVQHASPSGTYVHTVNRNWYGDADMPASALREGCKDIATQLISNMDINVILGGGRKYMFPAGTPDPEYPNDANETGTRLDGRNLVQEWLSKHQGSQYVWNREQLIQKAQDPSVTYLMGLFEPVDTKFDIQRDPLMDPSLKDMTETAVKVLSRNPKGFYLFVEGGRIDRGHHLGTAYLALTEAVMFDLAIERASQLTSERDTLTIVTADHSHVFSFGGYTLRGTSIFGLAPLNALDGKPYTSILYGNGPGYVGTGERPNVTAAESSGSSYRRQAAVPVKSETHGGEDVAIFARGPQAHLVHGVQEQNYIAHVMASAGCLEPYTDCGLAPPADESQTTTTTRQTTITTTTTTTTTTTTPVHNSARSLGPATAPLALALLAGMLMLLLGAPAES

[10] = target: T4, Intestinal-type alkaline phosphatase (Homo sapiens, UniProt P09923); assay: inhibition of human intestinal alkaline phosphatase – biochemical, dose response (AID 488876); format: functional
T4 sequence (P09923 whole entry): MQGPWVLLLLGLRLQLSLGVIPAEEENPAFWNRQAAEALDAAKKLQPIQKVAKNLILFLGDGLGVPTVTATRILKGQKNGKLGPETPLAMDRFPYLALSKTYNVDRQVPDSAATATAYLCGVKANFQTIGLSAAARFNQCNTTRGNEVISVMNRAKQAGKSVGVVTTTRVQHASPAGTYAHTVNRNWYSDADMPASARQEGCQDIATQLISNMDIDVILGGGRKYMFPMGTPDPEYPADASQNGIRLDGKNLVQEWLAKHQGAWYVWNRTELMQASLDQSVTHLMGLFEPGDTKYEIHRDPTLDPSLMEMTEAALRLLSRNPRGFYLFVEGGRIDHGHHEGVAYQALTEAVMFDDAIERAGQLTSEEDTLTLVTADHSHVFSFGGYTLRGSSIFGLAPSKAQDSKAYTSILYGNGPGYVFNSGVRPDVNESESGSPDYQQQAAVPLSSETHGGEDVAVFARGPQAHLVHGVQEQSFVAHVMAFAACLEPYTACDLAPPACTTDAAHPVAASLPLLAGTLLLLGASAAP

[11] = target: T5, Zinc finger protein mex-5 (Caenorhabditis elegans, UniProt Q9XUB2); assay: MEX-5/TCR-2 RNA interaction inhibitors, dose response, biochemical, C. elegans, fluorescence polarization (AID 1960)
T5 sequence (Q9XUB2 whole entry): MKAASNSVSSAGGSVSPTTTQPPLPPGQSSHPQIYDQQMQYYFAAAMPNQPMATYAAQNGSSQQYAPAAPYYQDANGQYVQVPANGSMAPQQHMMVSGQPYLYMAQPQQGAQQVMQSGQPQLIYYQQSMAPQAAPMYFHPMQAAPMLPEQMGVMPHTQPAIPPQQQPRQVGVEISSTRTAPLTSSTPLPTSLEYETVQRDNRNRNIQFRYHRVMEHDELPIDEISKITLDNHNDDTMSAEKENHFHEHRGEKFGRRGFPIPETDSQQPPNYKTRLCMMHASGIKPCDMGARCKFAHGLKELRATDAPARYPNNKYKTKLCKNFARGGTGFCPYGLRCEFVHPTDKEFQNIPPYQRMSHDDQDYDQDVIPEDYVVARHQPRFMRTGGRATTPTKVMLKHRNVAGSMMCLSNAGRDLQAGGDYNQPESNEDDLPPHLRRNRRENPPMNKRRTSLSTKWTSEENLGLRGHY

[12] = target: Lysine-specific demethylase 4C (Homo sapiens, UniProt Q9H3R0); assay: GASC-1 (JMJD2C) histone demethylase inhibitors, dose response, biochemical, DELFIA europium, cherry-picked samples (AID 488835); format: functional
[13] = target: sn-1-specific diacylglycerol lipase ABHD11 (Mus musculus, UniProt Q8K4F5); assay: Late stage assay provider results from the probe development effort to identify inhibitors of LYPLA1: fluorescence-based cell-based gel-based Activity-Based Protein Profiling (ABPP) IC50 for anti-target ABHD11. [Related pubchem assays (depositor defined):AID2174, AID2177, AID2202, AID2203, AID2232, AID2233, AID493105, AID493108, AID493109, AID493110, AID493111, AID493154, AID493161, AID504892]; format: functional
sn-1-specific diacylglycerol lipase ABHD11, sequence (Q8K4F5 whole entry): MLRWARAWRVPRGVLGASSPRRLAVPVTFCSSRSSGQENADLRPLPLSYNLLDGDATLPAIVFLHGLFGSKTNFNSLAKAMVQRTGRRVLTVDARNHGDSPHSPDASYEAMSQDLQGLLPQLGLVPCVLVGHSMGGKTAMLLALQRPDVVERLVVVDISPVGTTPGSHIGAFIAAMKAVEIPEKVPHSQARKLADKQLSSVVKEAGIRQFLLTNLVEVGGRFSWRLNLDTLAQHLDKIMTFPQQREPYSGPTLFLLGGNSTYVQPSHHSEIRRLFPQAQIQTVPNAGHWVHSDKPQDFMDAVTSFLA

CAAX prenyl protease 2 = target: T6, CAAX prenyl protease 2 (Homo sapiens, UniProt Q9Y256); assay: human Rce1 protease inhibitors, dose response, biochemical, yeast membranes, quenched-peptide fluorescence, cherry-pick (AID 588849)
T6 sequence (Q9Y256 whole entry): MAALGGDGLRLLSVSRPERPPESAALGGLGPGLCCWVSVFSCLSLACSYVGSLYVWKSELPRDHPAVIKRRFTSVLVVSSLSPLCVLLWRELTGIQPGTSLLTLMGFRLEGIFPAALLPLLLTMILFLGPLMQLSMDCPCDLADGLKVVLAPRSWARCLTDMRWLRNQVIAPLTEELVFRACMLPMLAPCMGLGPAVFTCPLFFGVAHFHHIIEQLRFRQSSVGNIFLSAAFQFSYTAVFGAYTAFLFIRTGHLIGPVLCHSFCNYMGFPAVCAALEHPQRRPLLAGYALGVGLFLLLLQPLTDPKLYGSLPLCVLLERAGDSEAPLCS

CAAX prenyl protease 1 = CAAX prenyl protease 1 (Saccharomyces cerevisiae S288c, UniProt P47154); assay: Ste24 protease inhibitors, dose response, biochemical, S. cerevisiae, plate reader, cherry-pick (AID 488815)
CAAX prenyl protease 1, sequence (P47154 whole entry): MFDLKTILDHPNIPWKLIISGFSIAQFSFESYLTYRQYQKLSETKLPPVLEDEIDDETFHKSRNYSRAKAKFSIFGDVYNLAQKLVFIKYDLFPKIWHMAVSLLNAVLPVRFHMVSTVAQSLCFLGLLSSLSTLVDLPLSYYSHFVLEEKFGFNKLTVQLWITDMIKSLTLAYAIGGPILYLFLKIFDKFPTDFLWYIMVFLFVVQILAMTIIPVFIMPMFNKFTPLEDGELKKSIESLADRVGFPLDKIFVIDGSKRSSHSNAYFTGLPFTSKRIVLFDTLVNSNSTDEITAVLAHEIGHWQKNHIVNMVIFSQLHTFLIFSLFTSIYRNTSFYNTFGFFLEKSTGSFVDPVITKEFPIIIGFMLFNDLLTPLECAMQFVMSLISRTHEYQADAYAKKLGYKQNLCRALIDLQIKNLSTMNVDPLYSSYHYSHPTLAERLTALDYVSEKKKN

Trypsin = Trypsin (Sus scrofa, UniProt P00761); assay: porcine trypsin inhibitors, dose response, selectivity assay for Rce1 protease inhibitor project, biochemical, quenched peptide fluorescence, cherry-pick (AID 488789)
Trypsin, sequence (P00761 whole entry): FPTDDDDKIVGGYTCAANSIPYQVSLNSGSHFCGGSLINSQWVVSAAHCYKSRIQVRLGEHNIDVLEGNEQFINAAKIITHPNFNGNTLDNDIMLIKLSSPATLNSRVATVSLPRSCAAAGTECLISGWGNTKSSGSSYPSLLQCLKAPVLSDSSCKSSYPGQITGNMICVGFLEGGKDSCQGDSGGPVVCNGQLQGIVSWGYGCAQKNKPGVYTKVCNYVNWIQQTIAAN

Cytochrome P450 2C19 = Cytochrome P450 2C19 (Homo sapiens, UniProt P33261); assay: Cytochrome panel assay with activity outcomes. Panel member name: p450-cyp2c19 Compounds with AC50 equal or less than 10 uM are considered active; format: functional
Cytochrome P450 2C19, sequence (P33261 whole entry): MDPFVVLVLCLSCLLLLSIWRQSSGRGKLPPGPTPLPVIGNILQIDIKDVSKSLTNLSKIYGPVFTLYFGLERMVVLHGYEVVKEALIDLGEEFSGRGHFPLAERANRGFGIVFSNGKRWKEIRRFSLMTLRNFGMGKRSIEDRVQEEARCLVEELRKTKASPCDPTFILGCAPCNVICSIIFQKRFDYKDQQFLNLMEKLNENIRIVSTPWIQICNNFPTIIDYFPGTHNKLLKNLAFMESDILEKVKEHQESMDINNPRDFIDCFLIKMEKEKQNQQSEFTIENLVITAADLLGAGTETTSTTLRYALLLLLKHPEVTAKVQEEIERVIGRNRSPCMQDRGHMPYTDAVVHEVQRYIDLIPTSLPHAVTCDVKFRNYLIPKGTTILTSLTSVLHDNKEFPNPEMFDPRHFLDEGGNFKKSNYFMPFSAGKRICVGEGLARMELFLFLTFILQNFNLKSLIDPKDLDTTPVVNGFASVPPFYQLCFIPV

Cytochrome P450 1A2 = target: T7, Cytochrome P450 1A2 (Homo sapiens, UniProt P05177);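 also: PubChem cytochrome P450 panel assay, CYP1A2 panel member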
T7 sequence (P05177 whole entry): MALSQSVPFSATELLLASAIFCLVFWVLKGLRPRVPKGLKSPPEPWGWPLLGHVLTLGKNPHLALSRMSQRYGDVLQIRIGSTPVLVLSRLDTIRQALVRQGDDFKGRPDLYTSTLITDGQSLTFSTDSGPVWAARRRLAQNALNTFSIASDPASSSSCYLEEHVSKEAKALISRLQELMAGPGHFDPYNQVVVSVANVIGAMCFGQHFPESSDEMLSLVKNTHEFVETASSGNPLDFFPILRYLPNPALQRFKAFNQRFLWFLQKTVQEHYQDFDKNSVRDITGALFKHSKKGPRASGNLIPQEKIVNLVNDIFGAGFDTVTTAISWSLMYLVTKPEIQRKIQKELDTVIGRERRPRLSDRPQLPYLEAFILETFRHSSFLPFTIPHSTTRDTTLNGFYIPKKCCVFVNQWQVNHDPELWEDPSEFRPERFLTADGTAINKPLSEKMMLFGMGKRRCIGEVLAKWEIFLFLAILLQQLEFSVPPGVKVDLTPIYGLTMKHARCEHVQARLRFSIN

[14] = target: T8, Ubiquitin-conjugating enzyme E2 N (Homo sapiens, UniProt P61088); format: functional;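 also: Dose-response confirmation in a TR-FRET assay detecting UBC13-driven polyubiquitin chain formation, inhibition measured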
T8 sequence (P61088 whole entry): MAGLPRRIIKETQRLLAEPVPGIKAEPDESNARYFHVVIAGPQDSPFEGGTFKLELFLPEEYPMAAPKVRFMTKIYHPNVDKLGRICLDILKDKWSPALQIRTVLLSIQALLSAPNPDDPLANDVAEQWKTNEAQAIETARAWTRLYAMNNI

Cytochrome P450 2C9 = Cytochrome P450 2C9 (Homo sapiens, UniProt P11712)
Cytochrome P450 2C9, sequence (P11712 whole entry): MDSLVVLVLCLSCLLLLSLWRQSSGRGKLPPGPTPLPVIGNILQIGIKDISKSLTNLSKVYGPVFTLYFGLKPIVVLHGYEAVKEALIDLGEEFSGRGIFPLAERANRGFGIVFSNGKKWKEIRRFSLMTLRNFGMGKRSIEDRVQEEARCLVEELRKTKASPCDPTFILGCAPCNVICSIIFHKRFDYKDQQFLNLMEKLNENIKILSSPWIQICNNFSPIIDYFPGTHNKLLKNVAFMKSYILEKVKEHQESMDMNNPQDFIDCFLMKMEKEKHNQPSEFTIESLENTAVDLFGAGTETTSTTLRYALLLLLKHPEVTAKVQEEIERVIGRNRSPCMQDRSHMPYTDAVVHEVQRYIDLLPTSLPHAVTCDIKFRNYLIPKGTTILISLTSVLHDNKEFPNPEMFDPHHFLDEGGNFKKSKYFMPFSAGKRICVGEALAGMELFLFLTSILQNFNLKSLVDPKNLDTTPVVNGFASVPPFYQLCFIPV

HEK293 = assay: cells; format: functional, cell-based; conditions: Homo sapiens
[15] = target: Nuclear receptor subfamily 0 group B member 1 (Homo sapiens, UniProt P51843); assay: Luminescence-based cell-based high throughput dose response assay for inhibitors of the orphan nuclear receptor subfamily 0, group B, member 1 (DAX1; NR0B1). [Related pubchem assays (depositor defined):AID504766, AID504790]; format: functional
Nuclear receptor subfamily 0 group B member 1, sequence (P51843 whole entry): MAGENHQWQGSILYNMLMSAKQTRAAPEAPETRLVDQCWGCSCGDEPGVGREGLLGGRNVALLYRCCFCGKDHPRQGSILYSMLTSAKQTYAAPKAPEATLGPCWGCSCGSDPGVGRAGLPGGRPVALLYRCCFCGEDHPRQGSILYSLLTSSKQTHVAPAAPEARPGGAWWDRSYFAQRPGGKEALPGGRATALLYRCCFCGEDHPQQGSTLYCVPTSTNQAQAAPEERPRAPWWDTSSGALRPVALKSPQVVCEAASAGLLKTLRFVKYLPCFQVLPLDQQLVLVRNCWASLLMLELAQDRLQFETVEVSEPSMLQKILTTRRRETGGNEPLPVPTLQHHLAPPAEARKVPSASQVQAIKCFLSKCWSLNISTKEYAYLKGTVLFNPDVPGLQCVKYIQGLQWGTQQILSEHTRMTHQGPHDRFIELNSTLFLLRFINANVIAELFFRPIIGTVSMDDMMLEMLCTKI

[16] = target: T3, Intestinal-type alkaline phosphatase; assay: PubChem AID 488874; format: functional
[17] = target: T4, Intestinal-type alkaline phosphatase; assay: human IAP inhibitors, dose response, biochemical, luminescent, uHTS hits, set 2 (AID 488793); format: functional
[18] = target: T9, Rac GTPase-activating protein 1 (Homo sapiens, UniProt Q9H0H5); assay: MgcRacGAP GTPase-activating activity inhibitors, confirmation, biochemical, ADP Hunter fluorescence, primary and confirmatory (AID 624330); format: functional
T9 sequence (Q9H0H5 whole entry): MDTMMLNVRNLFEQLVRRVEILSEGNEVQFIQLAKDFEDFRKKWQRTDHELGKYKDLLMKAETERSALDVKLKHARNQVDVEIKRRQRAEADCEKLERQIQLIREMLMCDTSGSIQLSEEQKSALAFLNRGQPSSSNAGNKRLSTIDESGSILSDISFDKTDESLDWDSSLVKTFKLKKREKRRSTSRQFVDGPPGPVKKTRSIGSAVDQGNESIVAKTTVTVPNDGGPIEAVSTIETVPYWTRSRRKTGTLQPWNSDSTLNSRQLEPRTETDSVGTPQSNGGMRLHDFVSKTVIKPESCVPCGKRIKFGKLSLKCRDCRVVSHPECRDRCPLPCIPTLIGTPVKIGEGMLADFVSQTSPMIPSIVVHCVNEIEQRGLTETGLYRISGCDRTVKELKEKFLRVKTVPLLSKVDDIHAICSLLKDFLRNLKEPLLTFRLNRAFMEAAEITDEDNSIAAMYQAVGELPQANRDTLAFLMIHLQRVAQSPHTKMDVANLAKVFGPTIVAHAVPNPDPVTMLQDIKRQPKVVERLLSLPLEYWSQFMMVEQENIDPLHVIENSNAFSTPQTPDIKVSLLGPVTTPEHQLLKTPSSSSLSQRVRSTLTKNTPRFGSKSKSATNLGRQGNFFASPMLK

[19] = target: T2, Alkaline phosphatase, tissue-nonspecific isozyme; assay: inhibition of tissue-nonspecific alkaline phosphatase – biochemical, dose response (AID 488882); format: functional
[20] = HeLa cell cytotoxicity, dose response, cytotoxicity control for MgcRacGAP inhibitor project (AID 624300); format: functional
[21] = target: T4, Intestinal-type alkaline phosphatase; assay: Dose Response confirmation of uHTS hits from a small molecule inhibitors of human intestinal alkaline phosphatase via a luminescent assay. [Related pubchem assays (depositor defined):AID2544, AID2574]; format: functional

Lysine-specific demethylase 4A, sequence (O75164 whole entry): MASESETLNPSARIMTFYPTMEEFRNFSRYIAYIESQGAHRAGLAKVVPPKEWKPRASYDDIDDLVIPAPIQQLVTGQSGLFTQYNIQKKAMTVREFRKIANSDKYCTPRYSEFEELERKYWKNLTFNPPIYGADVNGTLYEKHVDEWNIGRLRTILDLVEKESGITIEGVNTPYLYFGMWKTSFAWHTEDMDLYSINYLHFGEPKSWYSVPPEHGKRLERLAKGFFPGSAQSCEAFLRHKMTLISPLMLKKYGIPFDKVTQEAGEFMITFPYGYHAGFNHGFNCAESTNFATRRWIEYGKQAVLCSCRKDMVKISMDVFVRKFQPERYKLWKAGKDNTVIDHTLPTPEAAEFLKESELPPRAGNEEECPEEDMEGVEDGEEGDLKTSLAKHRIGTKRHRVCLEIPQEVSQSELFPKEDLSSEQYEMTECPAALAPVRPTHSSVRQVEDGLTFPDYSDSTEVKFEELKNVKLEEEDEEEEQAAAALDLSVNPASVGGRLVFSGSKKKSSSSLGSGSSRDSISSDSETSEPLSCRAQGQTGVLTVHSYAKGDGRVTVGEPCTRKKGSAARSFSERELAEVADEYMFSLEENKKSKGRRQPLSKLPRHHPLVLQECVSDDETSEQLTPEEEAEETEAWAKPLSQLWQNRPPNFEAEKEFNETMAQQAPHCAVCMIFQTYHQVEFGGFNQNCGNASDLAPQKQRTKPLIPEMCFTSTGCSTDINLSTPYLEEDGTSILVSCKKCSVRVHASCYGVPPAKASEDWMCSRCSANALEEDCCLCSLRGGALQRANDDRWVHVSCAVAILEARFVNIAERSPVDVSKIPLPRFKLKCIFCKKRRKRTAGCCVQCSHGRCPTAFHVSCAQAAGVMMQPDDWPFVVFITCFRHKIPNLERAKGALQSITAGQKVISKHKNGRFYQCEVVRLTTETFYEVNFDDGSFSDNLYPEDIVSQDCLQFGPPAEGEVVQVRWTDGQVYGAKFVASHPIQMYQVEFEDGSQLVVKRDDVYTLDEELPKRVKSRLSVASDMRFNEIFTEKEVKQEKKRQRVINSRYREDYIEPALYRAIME

SMILES: Cc1ccc(N(CC(=O)N2CCn3c2nc2ccccc23)S(=O)(=O)c2c(C)n[nH]c2C)cc1
- AC50 [1]: 55.7 µM (active)

SMILES: CCN(CC)S(=O)(=O)c1ccc(Oc2ccc(S(=O)(=O)N(CC)CC)cc2)cc1
- IC50 [2]: > 80 µM (inactive)
- IC50 [3]: > 35 µM (not active)
- AC50 (INS1): 2.23 µM (active)
- IC50 (Jurkat): > 80 µM (inactive)
- IC50 [4]: > 35 µM (not active)

SMILES: NS(=O)(=O)c1ccc(-c2ccc(/C=C3\NC(=S)NC3=O)o2)cc1
- AC50 [5]: 77.2 µM (active)
- AC50 [6]: 18.3 µM (active)
- EC50 [7]: 21.7 µM (inconclusive)
- IC50 [8]: 35.3 µM (active)
- IC50 [9]: 9.48 µM (active)
- IC50 [10]: > 100 µM (inactive)
- EC50 [11]: 10.8 µM (inconclusive)

SMILES: C=CCN1C(=O)NC(=O)/C(=C/c2ccoc2)C1=O
- AC50 [12]: 22.2 µM (active)

SMILES: COCC1CCCCN1C(=O)n1ncc(C(O)(c2ccccc2)c2ccccc2)n1 (stereo not given)
- IC50 [13]: 0.000137 µM (active)

SMILES: CCc1nnc(NC(=O)c2ccc(NS(=O)(=O)c3ccccc3)cc2)s1
- AC50 (CAAX prenyl protease 2): 5.24 µM (active)
- AC50 (CAAX prenyl protease 1): 7.02 µM (active)
- AC50 (Trypsin): 45.1 µM (active)

SMILES: COc1cc(N)c(Cl)cc1C(=O)N[C@H]1CCN(CCCOc2ccc(F)cc2)C[C@H]1OC [REL-CISAPRIDE]
- AC50 (Cytochrome P450 2C19): inactive
- AC50 (Cytochrome P450 1A2): inactive
- IC50 [14]: > 20 µM (inactive)
- AC50 (Cytochrome P450 2C9): inconclusive

SMILES: O=c1oc(-c2ccc(O)c(O)c2)cc2cc(O)cc(O)c12 [THUNBERGINOL B]
- IC50 (HEK293): > 67.5 µM (inactive)
- IC50 [15]: > 67.5 µM (inactive)
- IC50 [16]: 7.57 µM (active)
- IC50 [17]: 0.565 µM (active)
- IC50 [18]: 20.4 µM (active)
- IC50 [19]: 19.5 µM (active)
- CC50 [20]: 100 µM (active)
- IC50 [21]: 2.17 µM (active)
